Results as given in patent publication US11865098B1, “Methods and compositions for treating excessive sleepiness” (Axsome Malta Ltd., priority 2017, dated 2024).

Tested on: adult patients with OSA and ES
Test: MWT, 12-week placebo-controlled parallel study in OSA
Assay type: in vivo, human
Details: for MWT mean sleep latency increase from baseline >=5 minutes, subjects / MWT mean sleep latency increase from baseline >=10 minutes, subjects / MWT mean sleep latency increase from baseline >=15 minutes, subjects / MWT mean sleep latency increase from baseline >=20 minutes, subjects / MWT mean sleep latency increase from baseline >=25 minutes, subjects / MWT mean sleep latency increase from baseline >=30 minutes, subjects: mITT
Method: The MWT is an objective test used to measure how alert a subject is during the day. The test consists of four sleep trials with two hours in between the trials. The first trial is performed 1.5-3 hours after the subject's normal wake-up time. Sensors are placed on the head, face, and chin to detect when the subject is asleep and awake during the test. The subject sits quietly in bed with his or her back and head supported by a pillow and is asked to sit still and look straight ahead while trying to stay awake as long as possible. Each trial lasts 40 minutes or until the subject is asleep for 90 seconds. Between trials, the subject stays out of bed and occupies himself or herself to remain awake. Falling asleep in an average of less than eight minutes is considered abnormal. About 40-60% of subjects with normal sleep stay awake for the entire 40 minutes of all four trials.
The study was a 12-week, double-blind, placebo-controlled, parallel design study as described in greater detail in Example 1 (Schweitzer et al., Sleep 40(Abstract Supplement):A237. Abstract 0641 (2017)). Patients were randomized (1:1:2:2:2) to APC 37.5, 75, 150, 300 mg, or placebo for 12 weeks, and were stratified by adherence or non-adherence with primary OSA therapy (adherent definition was use for ≥4 hours per night on >70% of nights). Two patient-reported measures were included as secondary efficacy outcomes to evaluate the effects of APC on functional status and work productivity and activity impairment at baseline and weeks 1, 4, 8, and 12. The Functional Outcomes of Sleep questionnaire short version (FOSQ-10) (Chasens et al., Sleep 32(7):915 (2009)) evaluated the effects of ES on functioning. The Work Productivity and Activity Impairment questionnaire for Specific Health Problems (WPAI:SHP) (Reilly et al., Pharmacoeconomics 4(5):353 (1993); Reilly, Work Productivity and Activity Impairment Questionnaire: Specific Health Problem V2.0 (WPAI: SHP). www.reillyassociates.net/WPAI_SHP) evaluated work productivity impairment among employed patients and overall activity impairment outside of work among all patients for the past 7 days. Four outcomes are available from the WPAI:SHP: Absenteeism (percent work time missed due to health); Presenteeism (percent impairment while working due to health); Percent overall work impairment (calculated from absenteeism and presenteeism); and Percent activity impairment due to health. The FOSQ-10 was evaluated as change over time compared with placebo (least squares (LS) mean); the 4 WPAI outcomes were evaluated at week 12 compared to placebo. Efficacy analyses were based on the modified intent-to-treat population (mITT) and there was no multiplicity adjustment for the FOSQ-10 or WPAI:SHP. Safety and tolerability were assessed based on treatment-emergent adverse events (TEAEs), vital signs, electrocardiogram test, physical exams, Columbia-Suicide Severity Rating Scale, and laboratory tests in the safety population.
This was a 12-week, double-blind, placebo-controlled, parallel-design study. Patients were randomized (1:1:2:2:2) to APC 37.5 mg, 75 mg, 150 mg, or 300 mg, or placebo for 12 weeks, and were stratified by adherence or nonadherence with primary OSA therapy.

[1] = Week 12, Combined JZP-110 doses

## NC(=O)OC[C@H](N)Cc1ccccc1 [JZP-110, (R)-2-amino-3-phenylpropyl carbamate]
37.5, 75, 150, 300 mg, week 12
  Co-primary MWT endpoint: met at all doses
Week 1, 37.5 mg
  MWT mean sleep latency increase from baseline >=5 minutes, subjects: 4 (22.2) n (%)
  MWT mean sleep latency increase from baseline >=10 minutes, subjects: 2 (11.1) n (%)
  MWT mean sleep latency increase from baseline >=15 minutes, subjects: 2 (11.1) n (%)
  MWT mean sleep latency increase from baseline >=20 minutes, subjects: 2 (11.1) n (%)
  MWT mean sleep latency increase from baseline >=25 minutes, subjects: 0 n (%)
  MWT mean sleep latency increase from baseline >=30 minutes, subjects: 0 n (%)
Week 1, 75 mg
  MWT mean sleep latency increase from baseline >=5 minutes, subjects: 11 (64.7) n (%)
  MWT mean sleep latency increase from baseline >=10 minutes, subjects: 6 (35.3) n (%)
  MWT mean sleep latency increase from baseline >=15 minutes, subjects: 4 (23.5) n (%)
  MWT mean sleep latency increase from baseline >=20 minutes, subjects: 1 (5.9) n (%)
  MWT mean sleep latency increase from baseline >=25 minutes, subjects: 1 (5.9) n (%)
  MWT mean sleep latency increase from baseline >=30 minutes, subjects: 0 n (%)
Week 1, 150 mg
  MWT mean sleep latency increase from baseline >=5 minutes, subjects: 27 (81.8) n (%)
  MWT mean sleep latency increase from baseline >=10 minutes, subjects: 22 (66.7) n (%)
  MWT mean sleep latency increase from baseline >=15 minutes, subjects: 13 (39.4) n (%)
  MWT mean sleep latency increase from baseline >=20 minutes, subjects: 9 (27.3) n (%)
  MWT mean sleep latency increase from baseline >=25 minutes, subjects: 4 (12.1) n (%)
  MWT mean sleep latency increase from baseline >=30 minutes, subjects: 2 (6.1) n (%)
Week 1, 300 mg
  MWT mean sleep latency increase from baseline >=5 minutes, subjects: 28 (75.7) n (%)
  MWT mean sleep latency increase from baseline >=10 minutes, subjects: 22 (59.5) n (%)
  MWT mean sleep latency increase from baseline >=15 minutes, subjects: 19 (51.4) n (%)
  MWT mean sleep latency increase from baseline >=20 minutes, subjects: 14 (37.8) n (%)
  MWT mean sleep latency increase from baseline >=25 minutes, subjects: 7 (18.9) n (%)
  MWT mean sleep latency increase from baseline >=30 minutes, subjects: 4 (10.8) n (%)
Week 1, Combined JZP-110 doses
  MWT mean sleep latency increase from baseline >=5 minutes, subjects: 70 (66.7) n (%)
  MWT mean sleep latency increase from baseline >=10 minutes, subjects: 52 (49.5) n (%)
  MWT mean sleep latency increase from baseline >=15 minutes, subjects: 38 (36.2) n (%)
  MWT mean sleep latency increase from baseline >=20 minutes, subjects: 26 (24.8) n (%)
  MWT mean sleep latency increase from baseline >=25 minutes, subjects: 12 (11.4) n (%)
  MWT mean sleep latency increase from baseline >=30 minutes, subjects: 6 (5.7) n (%)
Week 4, 37.5 mg
  MWT mean sleep latency increase from baseline >=5 minutes, subjects: 21 (42.0) n (%)
  MWT mean sleep latency increase from baseline >=10 minutes, subjects: 16 (32.0) n (%)
  MWT mean sleep latency increase from baseline >=15 minutes, subjects: 7 (14.0) n (%)
  MWT mean sleep latency increase from baseline >=20 minutes, subjects: 4 (8.0) n (%)
  MWT mean sleep latency increase from baseline >=25 minutes, subjects: 0 n (%)
  MWT mean sleep latency increase from baseline >=30 minutes, subjects: 0 n (%)
Week 4, 75 mg
  MWT mean sleep latency increase from baseline >=5 minutes, subjects: 34 (61.8) n (%)
  MWT mean sleep latency increase from baseline >=10 minutes, subjects: 25 (45.5) n (%)
  MWT mean sleep latency increase from baseline >=15 minutes, subjects: 11 (20.0) n (%)
  MWT mean sleep latency increase from baseline >=20 minutes, subjects: 5 (9.1) n (%)
  MWT mean sleep latency increase from baseline >=25 minutes, subjects: 2 (3.6) n (%)
  MWT mean sleep latency increase from baseline >=30 minutes, subjects: 1 (1.8) n (%)
Week 4, 150 mg
  MWT mean sleep latency increase from baseline >=5 minutes, subjects: 83 (76.9) n (%)
  MWT mean sleep latency increase from baseline >=10 minutes, subjects: 54 (50.0) n (%)
  MWT mean sleep latency increase from baseline >=15 minutes, subjects: 40 (37.0) n (%)
  MWT mean sleep latency increase from baseline >=20 minutes, subjects: 26 (24.1) n (%)
  MWT mean sleep latency increase from baseline >=25 minutes, subjects: 13 (12.0) n (%)
  MWT mean sleep latency increase from baseline >=30 minutes, subjects: 3 (2.8) n (%)
Week 4, 300 mg
  MWT mean sleep latency increase from baseline >=5 minutes, subjects: 79 (78.2) n (%)
  MWT mean sleep latency increase from baseline >=10 minutes, subjects: 63 (62.4) n (%)
  MWT mean sleep latency increase from baseline >=15 minutes, subjects: 47 (46.5) n (%)
  MWT mean sleep latency increase from baseline >=20 minutes, subjects: 32 (31.7) n (%)
  MWT mean sleep latency increase from baseline >=25 minutes, subjects: 15 (14.9) n (%)
  MWT mean sleep latency increase from baseline >=30 minutes, subjects: 5 (5.0) n (%)
Week 4, Combined JZP-110 doses
  MWT mean sleep latency increase from baseline >=5 minutes, subjects: 217 (69.1) n (%)
  MWT mean sleep latency increase from baseline >=10 minutes, subjects: 158 (50.3) n (%)
  MWT mean sleep latency increase from baseline >=15 minutes, subjects: 105 (33.4) n (%)
  MWT mean sleep latency increase from baseline >=20 minutes, subjects: 67 (21.3) n (%)
  MWT mean sleep latency increase from baseline >=25 minutes, subjects: 30 (9.6) n (%)
  MWT mean sleep latency increase from baseline >=30 minutes, subjects: 9 (2.9) n (%)
Week 12, 37.5 mg
  MWT mean sleep latency increase from baseline >=5 minutes, subjects: 18 (36.7) n (%)
  MWT mean sleep latency increase from baseline >=10 minutes, subjects: 16 (32.7) n (%)
  MWT mean sleep latency increase from baseline >=15 minutes, subjects: 10 (20.4) n (%)
  MWT mean sleep latency increase from baseline >=20 minutes, subjects: 5 (10.2) n (%)
  MWT mean sleep latency increase from baseline >=25 minutes, subjects: 0 n (%)
  MWT mean sleep latency increase from baseline >=30 minutes, subjects: 0 n (%)
Week 12, 75 mg
  MWT mean sleep latency increase from baseline >=5 minutes, subjects: 35 (64.8) n (%)
  MWT mean sleep latency increase from baseline >=10 minutes, subjects: 25 (46.3) n (%)
  MWT mean sleep latency increase from baseline >=15 minutes, subjects: 15 (27.8) n (%)
  MWT mean sleep latency increase from baseline >=20 minutes, subjects: 7 (13.0) n (%)
  MWT mean sleep latency increase from baseline >=25 minutes, subjects: 3 (5.6) n (%)
  MWT mean sleep latency increase from baseline >=30 minutes, subjects: 1 (1.9) n (%)
Week 12, 150 mg
  MWT mean sleep latency increase from baseline >=5 minutes, subjects: 71 (67.6) n (%)
  MWT mean sleep latency increase from baseline >=10 minutes, subjects: 53 (50.5) n (%)
  MWT mean sleep latency increase from baseline >=15 minutes, subjects: 39 (37.1) n (%)
  MWT mean sleep latency increase from baseline >=20 minutes, subjects: 26 (24.8) n (%)
  MWT mean sleep latency increase from baseline >=25 minutes, subjects: 13 (12.4) n (%)
  MWT mean sleep latency increase from baseline >=30 minutes, subjects: 0 n (%)
Week 12, 300 mg
  MWT mean sleep latency increase from baseline >=5 minutes, subjects: 69 (75.0) n (%)
  MWT mean sleep latency increase from baseline >=10 minutes, subjects: 60 (65.2) n (%)
  MWT mean sleep latency increase from baseline >=15 minutes, subjects: 40 (43.5) n (%)
  MWT mean sleep latency increase from baseline >=20 minutes, subjects: 26 (28.3) n (%)
  MWT mean sleep latency increase from baseline >=25 minutes, subjects: 12 (13.0) n (%)
  MWT mean sleep latency increase from baseline >=30 minutes, subjects: 6 (6.5) n (%)
[1]
  MWT mean sleep latency increase from baseline >=5 minutes, subjects: 193 (64.3) n (%)
  MWT mean sleep latency increase from baseline >=10 minutes, subjects: 154 (51.3) n (%)
  MWT mean sleep latency increase from baseline >=15 minutes, subjects: 104 (34.7) n (%)
  MWT mean sleep latency increase from baseline >=20 minutes, subjects: 64 (21.3) n (%)
  MWT mean sleep latency increase from baseline >=25 minutes, subjects: 28 (9.3) n (%)
  MWT mean sleep latency increase from baseline >=30 minutes, subjects: 7 (2.3) n (%)
